Assay results published in US12435312B2, “Quantifying cell-derived changes in collagen synthesis, alignment, and mechanics in a 3D connective tissue model” (Brown University, priority 2022, dated 2025).
Blank lines part the entries; values can stand above or below the molecule they belong to.

Key:
[1] = tested on: normal human dermal fibroblasts (ring-shaped tissue constructs); experiment: Collagen quantification (pepsin-acid soluble collagen, sircol dye binding assay) of ring-shaped tissue constructs; format: cell-based; settings: for effect on collagen content: p>0.05
Experimental: (§1) Cell Source and Culture Conditions: Juvenile normal human dermal fibroblasts (jNHDF) were purchased from PromoCell (Heidelberg, Germany). Cells were expanded in Dulbecco's Modified Eagle's medium (DMEM) with high glucose, 1-glutamine, phenol red, and sodium pyruvate (11995065, Thermo Fisher Scientific, Waltham, MA) supplemented with 10% FBS and 1% penicillin/streptomycin at 10% CO2 and 37° C. Cells were passaged (P3-8) and expanded using a standard trypsin protocol. Cells were rinsed with 1× PBS (SH30256.FS, Thomas Scientific, Swedesboro, NJ), exposed to 0.05% trypsin in PBS for 4 min, quenched with serum containing media, centrifuged at 220g for 3 min, resuspended, counted, and plated at a density of 3.5-7.0×10^3 cells per cm^2. Ring-shaped tissue constructs (5 mm) were seeded at 3×10^5 cells per well in 1 mL of media exchanged every 2/3 days unless otherwise noted. For media composition experiments, tissues were cultured in serum-free DMEM supplemented with 0.1 mm 2-phospho-l-ascorbic acid trisodium salt (SigmaAldrich, St. Louis, MO), 50.0 μg mL^−1 I-proline (Thermo Fisher), 1% penicillin/streptomycin (SFM+), advanced DMEM (12491015) supplemented with 4 mm GlutaMax and 1% penicillin/streptomycin (SFMA), or a 50:50 mixture of the two (50:50 SFM+/SFMA).
Drug Treatment: For all dose-response experiments, ring constructs were allowed to form for 24 h prior to treatment. […]
Collagen Quantification: Tissues were homogenized with 2 mm glass beads for 2/3 min and solubilized in 0.1 mg mL^−1 pepsin in 0.5 m acetic acid at 4° C. for 48 h. Total pepsin-acid soluble collagen was quantified via sircol dye binding assay per kit instructions (S5000, Biocolor, United Kingdom). Absorbance was measured at 525 nm and collagen content was determined from a standard curve and adjusted to microgram equivalent of native pepsin-acid soluble collagen.

[2] = tested on: normal human dermal fibroblasts (ring-shaped tissue constructs); experiment: Tensile mechanical testing to failure of ring-shaped tissue constructs; format: cell-based
Experimental: as §1
Fabrication of Ring-Shaped Tissue Constructs: Ring-shaped molds were designed usingCADsoftware (SolidWorks Corporation, Concord, MA) and fabricated from stainless steel 316 L on a CNC lathe (Protolabs, Maple Plain, MN). The stainless steel parts were designed to fit into a single well of a standard 24 well plate. Ring-shaped agarose gels were cast by placing the stainless steel part into a well filled with 1.5 mL of molten, sterile 2% (w/v) agarose (BP160-500, Fisher Scientific, Hampton, NH) in 1× PBS, allowed to harden for 15 min, and removed. […] A lid mirroring a standard 24 well plate lid was fabricated out of aluminum with through holes above each well to permit the placement of all 24 stainless steel parts simultaneously. Gels were equilibrated in serum-free DMEM with 1% penicillin/streptomycin at 37° C., 10% CO2 for at least 24 h before use.
Drug Treatment: For all dose-response experiments, ring constructs were allowed to form for 24 h prior to treatment. FBS (12483020, Life Technologies, Carlsbad, CA), Y-27632 (S1049, Selleck Chemicals, Houston, TX), TGF-β1 (7754-BH-25, […]), and SB-431542 (S1067, Selleck Chemicals) doses were freshly prepared from frozen aliquots and resuspended in 50:50 SFM+/SFMA medium prior to feeding 3× per week. Doses of FBS were prepared at 10%, 1.0%, and 0.1% [v/v] concentrations with a 0% control. Y-27632 and SB-431542 were reconstituted in dimethyl sulfoxide (DMSO) and resuspended at a final concentration of 10, 1.0, 0.1, and a 0 μm vehicle control with a DMSO final volume always less than 0.1%. TGF-β1 was reconstituted in 0.1% bovine serum albumin (BSA) in 4 mm HCl (RB04, […]) and prepared at a final concentration of 10, 2, 0.4, and 0 ng mL^−1 vehicle control.
Mechanical Testing: Ring-shaped microtissues were mechanically tested using custom designed grippers on a uniaxial tensile testing setup (Instron 5943, Norwood, MA) equipped with a 5N (5 mn resolution) load cell. Agarose molds were trimmed with a razor blade and top and sideview brightfield images were obtained on a Nikon Eclipse Ts2 microscope (Nikon, Tokyo, Japan) to determine the initial elliptical cross-sectional area (A0). Just prior to testing, tissue constructs were gently removed from the agarose mold using forceps and mounted between grippers which consisted of two horizontal cylindrical segments with a circular diameter of 3 mm fabricated from glass filled nylon (PA614-GS, ProtoLabs). Tissues were brought to a 5 mm initial grip-to-grip distance and tests were performed in PBS at 37° C. […]

[3] = tested on: actomyosin network; settings: disruption of the actomyosin network; cited from earlier work
[4] = highest inhibitory concentration (10.0 μM) in 50:50 media, day 7 and 14, p<0.05
[5] = 0.1, 1.0, 10.0 μM in 50:50 media from 24 h after seeding, 7 or 14 days, p>0.05
[6] = 10 ng mL^−1 TGF-β1 versus 10 μm SB431542, day 7

Molecule: NC(=O)c1ccc(-c2nc(-c3ccc4c(c3)OCO4)c(-c3ccccn3)[nH]2)cc1 [SB-431542]
effect on collagen content ([1]; 0.1, 1.0, 10.0 μM in 50:50 media, any dose or time point): no effect | effect on tissue stiffness [2, 4]: weakest stiffness and strength | effect on tissue strength [2, 4]: weakest stiffness and strength

effect on collagen content ([1]; 0.1, 1.0, 10.0 μM in 50:50 media from 24 h after seeding, 7 or 14 days): did not significantly affect
Molecule: C[C@@H](N)[C@H]1CC[C@H](C(=O)Nc2ccncc2)CC1 [Y-27632]
effect on tissue stiffness [2, 5]: did not significantly affect | effect on tissue strength [2, 5]: did not significantly affect

Molecule: Cc1ccc2c(c1)C(=O)C1(O)CCN(c3ccccc3)C1=N2 (stereo not drawn) [blebbistatin]
effect on development of mechanical properties [3]: halts the development of mechanical properties

change in collagen content ([1]; 0.4, 2.0, 10 ng mL^−1 in 50:50 media, day 7 and 14): not a concomitant change
Molecule: TGF-β1: pleiotropic growth factor and proposed master mediator of fibrotic disorders
increase in tissue stiffness, TGF-β1 stimulation versus inhibition with SB431542 [2, 6]: 4.8 fold | increase in tissue strength, TGF-β1 stimulation versus inhibition with SB431542 [2, 6]: 6.5 fold | effect on tissue mechanics (stiffness and strength) ([2]; 0.4, 2.0, 10 ng mL^−1 in 50:50 media, day 7 and 14, p<0.05): increased tissue mechanics in a significant dose-dependent manner

Molecule: cytochalasin
effect on development of mechanical properties [3]: halts the development of mechanical properties
